For assay [1], the system named is AMPKα. In words: Enhancement of phosphorylation of AMPK, Western blotting in NIH/3T3 cells. The class given is cell-based, mouse. How it is done: (§1) Compound 1 was added to mouse fibroblast NIH/3T3 cells under serum-free conditions, the cells were harvested over a period of time to prepare a disrupted cell suspension, and phosphorylated AMPKα, total AMPKα, phosphorylated ACC, and total ACC were detected by Western blotting. ACC denotes acetyl-CoA carboxylase.

Assay [2] deals with ACC (acetyl-CoA carboxylase). In words: Enhancement of phosphorylation of ACC, Western blotting in NIH/3T3 cells. The class given is cell-based, mouse. How it is done: as §1
Assay [3] has as its system NIH/3T3 cells. The assay is described as follows: Inhibition of cell death caused by serum starvation, WST-8 assay. The class given is cell-based, mouse. Particulars: serum-free. How it is done: NIH/3T3 cells were cultured under serum-containing or serum-free conditions, and after a predetermined period of time, a WST-8 assay was performed to confirm the cell number (N=6).
FIG. 2 is a graph comparing the viable cell numbers in the serum-starved condition in the presence and absence of Compound 1.

Assay [4] has as its system NIH/3T3 cells. In words: Inhibition of cell death after storage at 4° C. and rewarming to 37° C. The class given is cell-based, mouse. Particulars: cells stored at 4° C. for 24 hours and then rewarmed to 37° C.
For assay [5], the system named is mouse fibroblast MEF. The assay is described as follows: Inhibition of TNF-α induced apoptosis. The class given is cell-based.
Assay [6] concerns Mouse spinal cord macrophages. The assay is described as follows: Inhibition of cell death in primary culture, WST-8 assay. The class given is cell-based. Particulars: serum-containing or serum-free. How it is done: Mouse spinal cord macrophages were cultured under serum-containing or serum-free conditions, and after a predetermined period of time, a WST-8 assay was performed to confirm the cell number (N=6).

Assay [7] concerns liver warm ischemia reperfusion injury. In words: Rat liver warm ischemia reperfusion injury model. It counts as in vivo. Particulars: LEW rats, 0.3 mg/kg before ischemia. How it is done:
An experiment was performed with a rat liver warm ischemia reperfusion model, in which LEW rats of eight to nine weeks of age were subjected to laparotomy under general anesthesia by endotracheal intubation, and after 20 minutes of warm ischemia applied by blocking the hepatic portal region, the blocking was released and reperfusion was carried out. With respect to positive subjects, using AICAR (aminoimidazole-4-carboxamide rebonucleoside), which is an AMPK activator, a solvent, Compound 1 (0.3 mg/kg), and AICAR (100 mg/kg) were administered, respectively, before ischemia, and aspartate aminotransferase (AST) and alanine aminotransferase (ALT), which are liver deviation enzymes, in peripheral blood were measured six hours after the reperfusion (N=3).

Assay [8] concerns HeLa cells. In words: Induction of cell death in cancer cells, WST-8 assay. Particulars: human cervical cancer. It counts as cell-based.
For assay [9], the system named is Jurkat cells. The assay is described as above. The settings on record: human T-cell leukemia. The class given is cell-based.
The test system of assay [10] is SH-SY5Y cells. The assay is described as follows: Induction of cell death in cancer cells. The class given is cell-based. The settings on record: human neuroblast.
Assay [11] has as its system LC3-II. In words: Autophagy marker LC3-II in cancer cells, Western blotting. The class given is cell-based, human. Particulars: HeLa cells, in the presence of 4 mM of BafA, cultured for 21 hours. How it is done: Bafilomycin A1 (BafA) is an autophagy inhibitor. BafA was added to HeLa cells for one hour and then Compound 1 was added thereto. After this was cultured for 21 hours, the cells were harvested to prepare a disrupted cell suspension, and the amount of LC3-II was confirmed by Western blotting. LC3-II is an autophagy marker.

For assay [12], the system named is HeLa cells. The assay is described as follows: Effect of autophagy inhibitor 3-MA on cell death induced by Compound 1, WST-8 assay. The class given is cell-based, human. How it is done: 3-Methyladenine (3-MA) is a class III PI3K inhibitor and is also an autophagy inhibitor. 3-MA was added to HeLa cells for one hour, and three days later, a WST-8 assay was performed to confirm the number of the cells.
Thus, it was confirmed that cell death induced by Compound 1 in cancer cells was autophagic.

[13] abbreviates: 16 hours after the addition (data not shown).
The mark [14] stands for this setting: NIH/3T3 cells, serum-free, within 10 minutes after the addition.

In the case of `O=S(=O)(Nc1cc(C(F)(F)F)ccc1N1CC[C@@H]2CCCC[C@H]2C1)c1ccc(F)cc1` [Compound 1, 4-fluoro-N-(2-((4aS,8aR)-octahydroisoquinolin-2(1H)-yl)-5-(trifluoromethyl)phenyl)benzenesulfonamide], the “phosphorylation of AMPK” value in assay [1] (setting [13]) is reported as “maintained”; in assay [1] (setting [14]) it was “enhanced”. For the same compound, the “phosphorylation of ACC” value was “maintained” in assay [2] (setting [13]) and “enhanced” in [2] (setting [14]). For the same compound, the “cell death caused by serum starvation (viable cell number)” value (from here on “cell death caused by serum starvation”) in [3] is recorded as “significantly inhibited cell death”. Moreover, the “cell death after cold storage and rewarming” value in assay [4] was “cell death inhibitory effect was observed”. For the same compound, the “TNF-α induced apoptosis (proinflammatory cell death)” value in assay [5] is reported as “cell death inhibitory effect was observed”. For the same compound, the “cell death in primary culture (viable cell number)” value in [6] is “significantly inhibited cell death”. Also, in [7], the hepatic injury result is reported as “alleviate hepatic injury”. The “elevation of liver deviation enzymes (AST, ALT) in peripheral blood” value in assay [7] (20 minutes warm ischemia, six hours after the reperfusion) was “inhibited the elevation of liver deviation enzymes”. For the same compound, the “cell death in cancer cells” value in assay [8], in [9] and in [10] was “able to induce cell death” throughout. Moreover, the “amount of LC3-II” value in assay [11] is given as “considerably increased”. Also, the “type of cell death induced in cancer cells” value in assay [12] (HeLa cells, with 3-MA, three days) is “autophagic”.

Regarding `O=S(=O)(Nc1cc(C(F)(F)F)ccc1N1CC[C@@H]2CCCC[C@H]2C1)c1ccccc1` [Compound 2, N-(2-((4aS,8aR)-octahydroisoquinolin-2(1H)-yl)-5-(trifluoromethyl)phenyl)benzenesulfonamide], the “cell death caused by serum starvation” value in [3] was “cell death inhibitory effect equivalent to that of Compound 1”.

Regarding `Cc1ccc(S(=O)(=O)Nc2cc(C(F)(F)F)ccc2N2CC[C@@H]3CCCC[C@H]3C2)cc1` [Compound 3, N-(2-((4aS,8aR)-octahydroisoquinolin-2(1H)-yl)-5-(trifluoromethyl)phenyl)-4-toluenesulfonamide], in [3], the “cell death caused by serum starvation” value is listed as “cell death inhibitory effect equivalent to that of Compound 1”.

As for `Cn1cnc(N)c2ncnc1-2` [Compound 3-MA, 3-Methyladenine, reference compound], the “survival rate of the cells” value in assay [12] (HeLa cells with cell death induced by Compound 1, depending on the amount of 3-MA added) is “improved”.

In the case of `O=S(=O)(Nc1cc(C(F)(F)F)ccc1N1CC[C@@H]2CCCC[C@H]2C1)c1ccc(Br)cc1` [Compound 4, 4-bromo-N-(2-((4aS,8aR)-octahydroisoquinolin-2(1H)-yl)-5-(trifluoromethyl)phenyl)benzenesulfonamide], in [3], the “cell death caused by serum starvation” value is “cell death inhibitory effect equivalent to that of Compound 1”.

Consider `O=S(=O)(Nc1cc(C(F)(F)F)ccc1N1CC[C@@H]2CCCC[C@H]2C1)c1ccc2ccccc2c1` [Compound 6, N-(2-((4aS,8aR)-octahydroisoquinolin-2(1H)-yl)-5-(trifluoromethyl)phenyl)-2-naphthalenesulfonamide], for which, in assay [3], the “cell death caused by serum starvation” value was “cell death inhibitory effect equivalent to that of Compound 1”.
